Assay results from paper PMC10418735, “Lipophilic Studies and In Silico ADME Profiling of Biologically Active 2-Aminothiazol-4(5H)-one Derivatives” (International Journal of Molecular Sciences, 2023).

Legend:
[1] = Lipophilicity by RP-HPLC (methanol/water, RP-18 column); format: physicochemical; settings: for −S (slope of the regression curve), RP–HPLC / log kw: methanol/water, RP-HPLC; for log kw: extrapolated to zero methanol concentration, 25 °C; for Φ0 (chromatographic lipophilicity parameter), RP–HPLC: Φ0 = −log kw/S
Protocol: The HPLC experiments were performed on the Shimadzu HPLC system (Kyoto, Japan) equipped with solvent delivery pump LC-20AD, UV–VIS detector model SPD-20A, degasser model DGU-20A5, a column oven model CTO-20A, and a column Superspher® 100 RP-18 (4 μm), Merck (Darmstadt, Germany). Methanol and water for HPLC from POCH (Gliwice, Poland) were used as solvents. Mobile phase methanol/water varied in the various ratios. Methanol concentration expressed as volume fraction v/v, varied in the range from 0.55 to 0.95 in constant steps of 0.05. Compounds 1–28 were dissolved in methanol (1 mg/mL). The mobile phase flow rate was 0.7 mL/min. The injection volume was 0.02 mL. All analyzes were performed at 25 °C. Experiments were performed in triplicate with similar results.
The retention coefficient k was calculated from the following relationship:(1) k=tr/tm−1, where tr [min]—retention time, and tm [min]—time for dead volume (measured by use of uracil).
To determine the linear relationship between the values of the log k parameter and the concentration of methanol in the mobile phase, the Soczewiński–Wachtmeister equation was used:(2) logk= log kw+SΦ, where log kw —value extrapolated to zero methanol concentration, Φ —methanol concentration in the mobile phase (volume fraction v/v), and S—the slope of the regression curve.
The parameter Φ0 was calculated from the equation:(3) Φ0=−log kw/S.

[2] = Lipophilicity by RP-TLC (methanol/water, HPTLC 60RP-18 plates); format: physicochemical; settings: for −S (slope of the regression curve), RP–TLC / RM0: methanol/water, RP-TLC; for RM0: extrapolated to zero methanol concentration, 22 °C; for Φ0 (chromatographic lipophilicity parameter), RP–TLC: Φ0 = −RM0/S
Protocol: Specifically, 10 × 10 cm plates with silica gel HPTLC 60RP-18 WF254s (Merck, Darmstadt, Niemcy) were used as the stationary phase. Methanol and water for HPLC from POCH (Gliwice, Poland) were used as solvents. Methanol concentration expressed as volume fraction v/v, varied in the range from 0.5 to 0.7 in constant steps of 0.05. Test compounds were dissolved in methanol (2 mg/mL), and then samples (0.01 mL) of each were applied to plates, which were developed in a horizontal DS chamber (Chromdes, Lublin, Poland).
The developing distance was 8 cm. Developed plates were air-dried and observed under 254 nm ultraviolet lamp. All analyzes were performed at 22 °C. Experiments were performed in triplicate with similar results.
For all the compounds, the relative lipophilicity RM values for five methanol–water mobile phases were calculated by the use of the following formula:(4) RM=log[1−RF/RF].
The linear relationship between the RM values and the concentration of methanol in the mobile phase to determine the lipophilicity parameters RM0 is described by the following equation:(5) RM=RM0+SΦ, where Φ —methanol concentration in the mobile phase (volume fraction v/v), and S—the slope of the regression curve.
The quantity Φ0 was calculated from the following equation:(6) Φ0=−RM0/S.

SMILES | −S (slope of the regression curve), RP–HPLC [1] | log kw [1] | Φ0 (chromatographic lipophilicity parameter), RP–HPLC [1] | −S (slope of the regression curve), RP–TLC [2] | RM0 [2] | Φ0 (chromatographic lipophilicity parameter), RP–TLC [2]
CC(C)(C)NC1=NC(=O)C(c2ccc(Br)cc2)S1 (centres unmarked) [Compound 16] | 4.537 | 3.38 | 0.745 | 4.131 | 3.20 | 0.774
CC(C)(C)NC1=NC(=O)C(C)(C)S1 [Compound 14] | 3.320 | 2.02 | 0.608 | 1.826 | 1.19 | 0.652
CC(C)C1SC(NC(C)(C)C)=NC1=O (centres unmarked) [Compound 13] | 3.585 | 2.39 | 0.667 | 2.095 | 1.46 | 0.699
O=C1N=C(NC23CC4CC(CC(C4)C2)C3)SC12CCC2 [Compound 27] | 4.383 | 3.66 | 0.835 | 3.025 | 2.56 | 0.847
CC(C)C1SC(NC23CC4CC(CC(C4)C2)C3)=NC1=O (centres unmarked) [Compound 22] | 4.744 | 3.94 | 0.830 | 3.175 | 2.67 | –
CCC1SC(NC23CC4CC(CC(C4)C2)C3)=NC1=O (centres unmarked) [Compound 20] | 4.437 | 3.6 | 0.811 | 2.678 | 2.30 | 0.860
